This note sets out measurements from patent US12466829B2, “Spirocyclic piperidine melanocortin subtype-2 receptor (MC2R) antagonists and uses thereof” (Crinetics Pharmaceuticals, Inc., priority 2019, dated 2025).

For the test, the target named is T1, hMC2 receptor (Homo sapiens, UniProt Q01718).
T1 construct: host or cells: CRE-bla-CHO-K1 cells
T1 sequence (Q01718 whole entry): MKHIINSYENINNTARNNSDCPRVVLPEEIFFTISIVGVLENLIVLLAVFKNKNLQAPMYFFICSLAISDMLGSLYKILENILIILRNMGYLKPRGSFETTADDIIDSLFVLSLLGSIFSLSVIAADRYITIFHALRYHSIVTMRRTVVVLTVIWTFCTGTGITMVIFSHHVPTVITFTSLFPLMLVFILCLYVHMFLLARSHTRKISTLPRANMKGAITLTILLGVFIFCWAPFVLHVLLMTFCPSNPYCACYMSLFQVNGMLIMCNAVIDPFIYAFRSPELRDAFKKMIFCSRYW
T1 sequence (Q8TCY5 whole entry partner): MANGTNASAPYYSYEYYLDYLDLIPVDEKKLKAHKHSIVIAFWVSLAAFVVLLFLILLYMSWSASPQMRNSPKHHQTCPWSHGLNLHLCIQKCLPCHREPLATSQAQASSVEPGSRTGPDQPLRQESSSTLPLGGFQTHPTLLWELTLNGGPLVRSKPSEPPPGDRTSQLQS
In words: hMC2 membrane binding assay ([125I]ACTH (1-39) Tyr23, SPA). To be noted: crude membranes of CRE-bla-CHO-K1 cells expressing hMC2 receptor and hMRAP; 0.2 nM [125I]ACTH (1-39) Tyr23; 1.5 hours at room temperature; read-out: MC2R binding potency. Here is the method:
Crude membrane fractions are prepared from CRE-bla-CHO-K1 cells stably expressing hMC2 receptor and hMRAP accessory protein (Thermo Fisher). The cells are grown to 85-100% confluence on standard tissue culture dishes in GlutaMax DMEM growth media (Gibco) with following additives: 10% dialyzed FBS (Gemini), 0.1 mM NEAA (Gibco), 25 mM HEPES (Gibco), 5 μg/mL blasticidin (Goldbio), 100 μg/mL zeocin (Invitrogen), 600 μg/mL hygromycin (Goldbio). To prepare membranes, cells are scraped and collected in 1× Dulbecco's phosphate buffered saline (Corning) and then pelleted at 1000 RPM's. The cell pellet is reconstituted in membrane preparation buffer (20 mM HEPES, 6 mM MgCl2 and 1 mM EGTA, protease inhibitor tablets (Pierce) adjusted to pH 7.4), homogenized using a dounce homogenizer, and the resulting membrane fraction is pelleted by centrifugation at 12,000 RPM's. The membrane pellet is resuspended in membrane preparation buffer, snap freezed and stored at −80° C. for later use.
The hMC2 membrane binding assay utilizes the following components: radiolabel [^125I]ACTH (1-39) Tyr23 (PerkinElmer), wheatgerm agglutinin coated PVT SPA beads (PerkinElmer), crude hMC2R membranes, and compounds. Briefly hMC2R membranes are incubated with SPA beads in binding assay buffer (50 mM HEPES, 5 mM MgCl2, 1 mM CaCl2), 0.2% BSA, protease inhibitor tablets (Pierce) adjusted to pH7.4) prior to assay initiation. […] Assay plates are read using a Top Count NXT and Ki values for compounds are determined using a GraphPad Prism 6 non-linear regression analysis.
`CCOc1ncccc1-c1ccc2c(c1)N([C@@H]1CCN(C)C1)C(=O)C21CCN(c2ccc(C(F)(F)F)cc2C#N)CC1` [1-21, 2-[6-(2-ethoxypyridin-3-yl)-1-[(3R)-1-methylpyrrolidin-3-yl]-2-oxo-1,2-dihydrospiro[indole-3,4′-piperidin]-1′-yl]-5-(trifluoromethyl)benzonitrile]: the Ki was in the range of 10 to 100 nM.
Under `CCOc1ncccc1-c1ccc2c(c1)N(C(=O)CCN)CC21CCN(c2cc(C#N)cc(C(F)(F)F)n2)CC1` [1-19, 2-[1-(3-aminopropanoyl)-6-(2-ethoxypyridin-3-yl)-1,2-dihydrospiro[indole-3,4′-piperidin]-1′-yl]-6-(trifluoromethyl)pyridine-4-carbonitrile] stands 1000 to 10000 nM; under `CCOc1ncccc1-c1ccc2c(c1)N(C(=O)C[C@@H](C)N)CC21CCN(c2ccc(C(F)(F)F)cc2C#N)CC1` [1-6, 2-{1-[(3R)-3-aminobutanoyl]-6-(2-ethoxypyridin-3-yl)-1,2-dihydrospiro[indole-3,4′-piperidin]-1′-yl}-5-(trifluoromethyl)benzonitrile], 10 to 100 nM.
Under `CCOc1ncccc1-c1ccc2c(c1)N(C[C@@H]1CCN1)CC21CCN(c2ccc(C(F)(F)F)cc2C#N)CC1` [1-39, 2-(1-{[(2S)-azetidin-2-yl]methyl}-6-(2-ethoxypyridin-3-yl)-1,2-dihydrospiro[indole-3,4′-piperidin]-1′-yl)-5-(trifluoromethyl)benzonitrile] stands 10 to 100 nM; under `CCOc1ncccc1-c1ccc2c(c1)N(C(=O)CCN)CC21CCN(c2cc(OC)cc(C(F)(F)F)n2)CC1` [1-36, 3-amino-1-[6-(2-ethoxypyridin-3-yl)-1′-[4-methoxy-6-(trifluoromethyl)pyridin-2-yl]-1,2-dihydrospiro[indole-3,4′-piperidin]-1-yl]propan-1-one], 1000 to 10000 nM.
Under `CCOc1ncccc1-c1ccc2c(n1)N([C@H]1CCNC1)CC21CCN(c2ccc(C(F)(F)F)cc2C#N)CC1` [1-53, 2-[6′-(2-ethoxypyridin-3-yl)-1′-[(3S)-pyrrolidin-3-yl]-1′,2′-dihydrospiro[piperidine-4,3′-pyrrolo[2,3-b]pyridin]-1-yl]-5-(trifluoromethyl)benzonitrile] stands 10 to 100 nM; under `CCOc1ncccc1-c1ccc2c(c1)N(C(=O)NC[C@H](C)N)CC21CCN(c2ccc(C(F)(F)F)cc2C#N)CC1` [1-31, N-[(2S)-2-aminopropyl]-1′-[2-cyano-4-(trifluoromethyl)phenyl]-6-(2-ethoxypyridin-3-yl)-1,2-dihydrospiro[indole-3,4′-piperidine]-1-carboxamide], 10 to 100 nM.
`CCOc1ncccc1-c1ccc2c(c1)N(C(=O)CCN)CC21CCN(c2ccc(C(F)(F)F)cc2Cl)CC1` [1-7, 3-amino-1-{1′-[2-chloro-4-(trifluoromethyl)phenyl]-6-(2-ethoxypyridin-3-yl)-1,2-dihydrospiro[indole-3,4′-piperidin]-1-yl}propan-1-one]: the Ki was in the range of 10 to 100 nM.
With `C[C@@H](N)CN1CC2(CCN(c3ccc(C(F)(F)F)cc3C#N)CC2)c2ccc(-c3ccccc3CO)cc21` [1-42, 2-{1-[(2R)-2-aminopropyl]-6-[2-(hydroxymethyl)phenyl]-1,2-dihydrospiro[indole-3,4′-piperidin]-1′-yl}-5-(trifluoromethyl)benzonitrile] the figure was 10 to 100 nM; with `CCOc1ncccc1-c1ccc2c(c1)N(C(=O)CCN)CC21CCN(c2cc(C(F)(F)F)cc(C#N)n2)CC1` [1-24, 6-[1-(3-aminopropanoyl)-6-(2-ethoxypyridin-3-yl)-1,2-dihydrospiro[indole-3,4′-piperidin]-1′-yl]-4-(trifluoromethyl)pyridine-2-carbonitrile], 1000 to 10000 nM.
With `CCOc1ncccc1-c1ccc2c(c1)N(C(=O)CCN)C(C)C21CCN(c2ccc(C(F)(F)F)cc2C#N)CC1` (stereo not shown) [1-26, 2-[1-(3-aminopropanoyl)-6-(2-ethoxypyridin-3-yl)-2-methyl-1,2-dihydrospiro[indole-3,4′-piperidin]-1′-yl]-5-(trifluoromethyl)benzonitrile] the figure was 10 to 100 nM.
Under `CCOc1ncccc1-c1ccc2c(c1)N(CCN)C(=O)C21CCN(c2ccc(C(F)(F)F)cc2C#N)CC1` [1-16, 2-[1-(2-aminoethyl)-6-(2-ethoxypyridin-3-yl)-2-oxo-1,2-dihydrospiro[indole-3,4′-piperidin]-1′-yl]-5-(trifluoromethyl)benzonitrile] stands less than 10 nM; under `CCOc1ncccc1-c1ccc2c(n1)N(C[C@@H](C)N)CC21CCN(c2ccc(C(F)(F)F)cc2C#N)CC1` [1-46, 2-{1′-[(2R)-2-aminopropyl]-6′-(2-ethoxypyridin-3-yl)-1′,2′-dihydrospiro[piperidine-4,3′-pyrrolo[2,3-b]pyridin]-1-yl}-5-(trifluoromethyl)benzonitrile], less than 10 nM; under `N#Cc1cc(C(F)(F)F)ccc1N1CCC2(CC1)CN(C(=O)CCN)c1cc(-c3ccccc3CO)ccc12` [1-35, 2-[1-(3-aminopropanoyl)-6-[2-(hydroxymethyl)phenyl]-1,2-dihydrospiro[indole-3,4′-piperidin]-1′-yl]-5-(trifluoromethyl)benzonitrile], 10 to 100 nM.
As for `CCOc1ncccc1-c1ccc2c(n1)N(C(=O)[C@H](C)N)CC21CCN(c2ccc(C(F)(F)F)cc2C#N)CC1` [1-48, 2-{1′-[(2S)-2-aminopropanoyl]-6′-(2-ethoxypyridin-3-yl)-1′,2′-dihydrospiro[piperidine-4,3′-pyrrolo[2,3-b]pyridin]-1-yl}-5-(trifluoromethyl)benzonitrile], the Ki was less than 10 nM.
For the compound “2-[1′-(3-aminopropyl)-7′-(2-ethoxypyridin-3-yl)-2′-oxo-2′,3′-dihydro-1′H-spiro[piperidine-4,4′-quinolin]-1-yl]-5-(trifluoromethyl)benzonitrile [1-67]”, the Ki lay in the range of 10 to 100 nM.
Under `CCOc1ncccc1-c1ccc2c(c1)N(C(=O)CCN)CC21CCN(c2ccc(Cl)cc2C(F)(F)F)CC1` [1-22, 3-amino-1-{1′-[4-chloro-2-(trifluoromethyl)phenyl]-6-(2-ethoxypyridin-3-yl)-1,2-dihydrospiro[indole-3,4′-piperidin]-1-yl}propan-1-one] stands 10 to 100 nM; under `CCOc1ncccc1-c1ccc2c(c1)N(C[C@@H](C)N)CC21CCN(c2ccc(C(F)(F)F)cc2C#N)CC1` [1-13, 2-{1-[(2R)-2-aminopropyl]-6-(2-ethoxypyridin-3-yl)-1,2-dihydrospiro[indole-3,4′-piperidin]-1′-yl}-5-(trifluoromethyl)benzonitrile], less than 10 nM.
Under `CCOc1ncccc1-c1ccc2c(c1)N(CCNC)C(=O)CC21CCN(c2ccc(C(F)(F)F)cc2C#N)CC1` [1-69, 2-[7′-(2-ethoxypyridin-3-yl)-1′-[2-(methylamino)ethyl]-2′-oxo-2′,3′-dihydro-1′H-spiro[piperidine-4,4′-quinolin]-1-yl]-5-(trifluoromethyl)benzonitrile] stands 10 to 100 nM; under `CCOc1ncccc1-c1ccc2c(c1)N(C(=O)NC[C@@H](C)N)CC21CCN(c2ccc(C(F)(F)F)cc2C#N)CC1` [1-30, N-[(2R)-2-aminopropyl]-1′-[2-cyano-4-(trifluoromethyl)phenyl]-6-(2-ethoxypyridin-3-yl)-1,2-dihydrospiro[indole-3,4′-piperidine]-1-carboxamide], 10 to 100 nM.
On to `CCOc1ncccc1-c1ccc2c(c1)N(C[C@@H](C)N)C(=O)CC21CCN(c2ccc(C(F)(F)F)cc2C#N)CC1` [1-70, 2-{1′-[(2R)-2-aminopropyl]-7′-(2-ethoxypyridin-3-yl)-2′-oxo-2′,3′-dihydro-1′H-spiro[piperidine-4,4′-quinolin]-1-yl}-5-(trifluoromethyl)benzonitrile], for which the Ki was in the range of 10 to 100 nM.
Under `CCOc1ncccc1-c1ccc2c(c1)N(C(=O)CCN)CC21CCN(c2ccc(Cl)cc2C#N)CC1` [1-34, 2-[1-(3-aminopropanoyl)-6-(2-ethoxypyridin-3-yl)-1,2-dihydrospiro[indole-3,4′-piperidin]-1′-yl]-5-chlorobenzonitrile] stands 10 to 100 nM.
With `CCOc1ncccc1-c1ccc2c(c1)N(CCN)CC21CCN(c2ccc(C(F)(F)F)cc2C#N)CC1` [1-12, 2-[1-(2-aminoethyl)-6-(2-ethoxypyridin-3-yl)-1,2-dihydrospiro[indole-3,4′-piperidin]-1′-yl]-5-(trifluoromethyl)benzonitrile], the Ki fell in the range of 10 to 100 nM.
Under `CCOc1ncccc1-c1ccc2c(c1)N([C@@H]1CCNC1)C(=O)C21CCN(c2ccc(C(F)(F)F)cc2C#N)CC1` [1-18, 2-[6-(2-ethoxypyridin-3-yl)-2-oxo-1-[(3R)-pyrrolidin-3-yl]-1,2-dihydrospiro[indole-3,4′-piperidin]-1′-yl]-5-(trifluoromethyl)benzonitrile] stands less than 10 nM.
With `CCOc1ncccc1-c1ccc2c(c1)N(CCNC)C(=O)NC21CCN(c2ccc(C(F)(F)F)cc2C#N)CC1` [1-65, 2-[7′-(2-ethoxypyridin-3-yl)-1′-[2-(methylamino)ethyl]-2′-oxo-2′,3′-dihydro-1′H-spiro[piperidine-4,4′-quinazolin]-1-yl]-5-(trifluoromethyl)benzonitrile] the figure was less than 10 nM.
